Measured values reported in US9816994B2, “Method for treating a blood component containing sample” (ARKRAY, Inc., priority 2012, dated 2017).

Assays:
erythrocytes = assay: Measurement of lysis time of erythrocytes (absorbance at 650 nm, micro-plate reader); assay type: cell-based, human
Experimental: As a sample containing erythrocytes, blood that had been collected from a vein of a healthy person by use of a vacuum blood-collecting vessel (EDTA including 2K) was used. 30 μL of the sample containing the blood was dispensed onto a 96-well microplate, in which 30 μL of the aqueous solution of surfactant was mixed and stirred five times with pipetting, thereby allowing the reaction solution to react homogeneously. The absorbance was measured every one minute with a micro-plate reader. The moment at which the absorbance became 0.5 or lower at a wavelength of 650 nm was determined as the lysis of the blood cells. The results are shown in Table 3 below (Examples 1 and 2). In Examples 1 and 2, the absorbance reached 0.5 within the time period from 30 minutes to 60 minutes after starting the measurement. On the other hand, in Comparative Example 9 where the aqueous solution of the surfactant was replaced by distilled water, the absorbance did never reach 0.5 even 60 minutes after from the start of the measurement. The micro-plate reader used herein was Thermo Labsystems Multiskan Ascent 35 manufactured by Thermo Labsystems.

leukocytes = assay: Assessment of damage to leukocytes (trypan blue survival rate); assay type: cell-based
Experimental: Leukocytes were separated from 10 ml of fresh blood in accordance with HetaSep protocol (manufactured by STEMCELL (trade name) Technologies), which was suspended in 1 ml of PBS(−) and collected in a 1.5 ml disposable microtube (a microcentrifuge tube with trade name of DSP-MC-15A manufactured by Nichiryo Co., Ltd.). Since a small amount of erythrocytes were still included in the separated leukocytes, the erythrocytes were eliminated by using ammonium chloride (supplied by STEMCELL (trade name) Technologies) in accordance with the attached document, and the leukocytes were collected through centrifugation, washed in PBS(−), and then suspended in 1 ml of a serum-including medium. 50 μL of leukocyte suspension in the serum-including medium and 50 μL of the aqueous solution of the surfactant were mixed in the 1.5 ml microcentrifuge tube, and the mixed solution was stirred with pipetting about five times so that the solution would be homogeneous. […] Provided that the number of cells in a reaction liquid to which distilled water had been added in place of the reagent being 100%, the survival rate was calculated from the number of cells survived 10 minutes after (Example 1) and 30 minutes after (Example 2) from the reaction with the aqueous solution of surfactant.

[1] = tested on: SNU-1 gastric cancer cells; assay: Assessment of damage to cancer cells (trypan blue survival rate), SNU-1; assay type: cell-based, human; settings: 10 minutes after a contact with surfactant, 2.5 w/v %
Experimental: Cells of SNU-1, MCF-7, SW620, PC3, and NCI-358 derived from gastric cancer, breast cancer, large intestinal cancer, prostate cancer, and lung cancer were prepared to be 2×10^6 Cells/ml and used. The cancer cells were prepared in the following manner. 50 μL of a cancer cell suspension in the serum-including medium and 50 μL of the aqueous solution of the surfactant were added into the 1.5 ml microcentrifuge tube, stirred with pipetting so as to make the solution homogeneous. Later, the solution was allowed to stand at an ambient temperature of 23° C. for about 10 minutes so as to proceed the reaction. […] Provided that the number of cells in a reaction liquid to which distilled water had been added in place of the reagent being 100%, the survival rate was calculated from the number of cells survived 10 minutes after (Example 1) and 30 minutes after (Example 2) from the reaction with the aqueous solution of the surfactant. […]
A mixture of the surfactant No. 1 and either the surfactant No. 2 or No. 3 was prepared at a mixing ratio of 10:0 to 0:10 (weight ratio: the total concentration of the surfactants was 2.5 w/v %). […] The survival rate was calculated from the number of cells survived after the reaction with the mixture of surfactants, provided that the number of cells in a reaction liquid to which distilled water had been added in place of the reagent being 100%. […]

[2] = tested on: MCF-7 breast cancer cells; assay: Assessment of damage to cancer cells (trypan blue survival rate), MCF-7; assay type: cell-based, human; settings: 10 minutes after a contact with surfactant, 2.5 w/v %
Experimental: (§1) Cells of SNU-1, MCF-7, SW620, PC3, and NCI-358 derived from gastric cancer, breast cancer, large intestinal cancer, prostate cancer, and lung cancer were prepared to be 2×10^6 Cells/ml and used. The cancer cells were prepared in the following manner. 50 μL of a cancer cell suspension in the serum-including medium and 50 μL of the aqueous solution of the surfactant were added into the 1.5 ml microcentrifuge tube, stirred with pipetting so as to make the solution homogeneous. Later, the solution was allowed to stand at an ambient temperature of 23° C. for about 10 minutes so as to proceed the reaction. Then, the reaction liquid in the microcentrifuge tube was stirred with pipetting so as to disperse the cells, and subsequently, 50 μL of the liquid was dispensed into another microcentrifuge tube and 50 μL of 0.4% trypan blue stain solution (Invitrogen) was mixed therein. This was injected into a counting chamber so as to count living cells that had not been stained with the trypan blue. Provided that the number of cells in a reaction liquid to which distilled water had been added in place of the reagent being 100%, the survival rate was calculated from the number of cells survived 10 minutes after (Example 1) and 30 minutes after (Example 2) from the reaction with the aqueous solution of the surfactant. […]

[3] = tested on: SW620 large intestinal cancer cells; assay: Assessment of damage to cancer cells (trypan blue survival rate), SW620; assay type: cell-based, human; settings: 10 minutes after a contact with surfactant, 2.5 w/v %
Experimental: as §1

[4] = tested on: PC3 prostate cancer cells; assay: Assessment of damage to cancer cells (trypan blue survival rate), PC3; assay type: cell-based, human; settings: 10 minutes after a contact with surfactant, 2.5 w/v %
Experimental: as §1

[5] = tested on: NCI-H358 lung cancer cells; assay: Assessment of damage to cancer cells (trypan blue survival rate), NCI-H358; assay type: cell-based, human; settings: 10 minutes after a contact with surfactant, 2.5 w/v %
Experimental: as §1

“polyoxyethylene octyl dodecylether (EO=25) [Surfactant No. 1]” was tested, and the “Lysis time to reach absorbance of 0.5” value (erythrocytes; surfactant (2.5 w/v %), mixing ratio 2:8 (No. 1 is 80%)) was 30 to 60 min, the “Lysis time to reach absorbance of 0.5” value (erythrocytes; surfactant used alone, preparation concentration 2.5 w/v %) was 30 to 60 min and the “selectivity of lowering survival rate, leukocytes against cancer cells” value (leukocytes; 2.5 w/v % aqueous solution, 10 and 30 minutes) was “lower selectively the survival rate of the leukocytes rather than cancer cells”. The “Leukocyte survival rate (%)” value (leukocytes; 10 minutes after contact, 2.5 w/v %, 23° C., distilled water = 100%) was 71.8%, the “Cancer cell survival rate (%) SNU-1 Gastric cancer” value [1] was 86.1% and the “Cancer cell survival rate (%) MCF-7 Breast cancer” value [2] was 112.3%. The “Cancer cell survival rate (%) SW620 Large intestinal cancer” value [3] was 81%, the “Cancer cell survival rate (%) PC3-9 Prostate cancer” value [4] was 101.8% and the “Cancer cell survival rate (%) MCI-358 Lung cancer” value [5] was 89.9%.
